Experiments:
[1] = test system: skin; test: Skin coloration by the Maillard reaction (self-tanning) after application to the skin; type: in vivo; conditions: for coloration produced in the skin: applied to the skin, melanoidins in the upper layers of skin
Method: The secondary compound, 3,5-dimethoxy-4-hydroxybenzaldehyde, is applied to the skin along with DHA.
Over time, the chemical stability of unprotected DHA is reduced, producing undesirable chemical compounds such as methylglyoxal and formic acid. […] The Maillard reaction produced by the DHA take sup to 5 hours to produce melanoidins, or colored compounds, in the upper layers of the skin. By the time an undesirable coloration develops, the wearer is helpless to remove or adjust the coloration, and must wait until their upper layers of skin are shed in order to rid themselves of the off-color.
FIG. 1 illustrates the chemical structure of 3,5-dimethoxy-4-hydroxybenzaldehyde. Structurally, this compound is a vanillin, or a hydroxymethoxybenzaldehyde.

[2] = Water solubility
Text: The 3,5-dimethoxy-4-hydroxybenzaldehyde, as a water-insoluble aldehyde, is chemically compatible with water-soluble DHA. The compounds exist in two separate phases of a cosmetic formulation, the water phase and the oil phase.

| Structure (SMILES) | coloration produced in the skin [1] | coloration produced on the skin by degraded DHA ([1]; degraded or "stale" DHA applied to the skin) | time of the Maillard reaction to produce melanoidins in the upper layers of the skin ([1]; in vivo) | water solubility [2] | Maillard reaction rate relative to DHA ([1]; compared with DHA, attributed to larger molecular size and longer penetration time into the skin) |
| --- | --- | --- | --- | --- | --- |
| O=C(CO)CO [DHA, 1,3-dihydroxyacetone] | orange-brown | orange coloration | up to 5 hours | – | – |
| COc1cccc(C=O)c1O [ortho-vanillin] | do not produce similar coloration or any Maillard reaction mechanism | – | – | – | – |
| COc1cc(C=O)cc(OC)c1O [3,5-dimethoxy-4-hydroxybenzaldehyde] | olive-green | – | – | water-insoluble | slightly slower |
| CCOc1cc(C=O)ccc1O [ethylvanillin] | do not produce similar coloration or any Maillard reaction mechanism | – | – | – | – |

— patent US20030068286A1, “Self-tanning compositions having improved coloration using 3,5-dimethoxy-4-hydroxybenzaldehyde and 1,3-dihydroxyacetone” (priority 2001, published 2003)
